Reference: patent publication US20260285850A1, “SUBSTITUTED OXAZOLIDINONES AND IMIDAZOLINONES AS HERBICIDES” (FMC CORPORATION, priority 2023, published 2026)

Assays:
Format in all cases: in vivo
[1] = system: barnyardgrass (Echinochloa crus-galli); assay: Test A preemergence soil spray, visual injury rating 0-100; conditions: 10 days
Outline: (§1)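 Greenhouse test: loam/sand pots received a surfactant-containing formulation, as a preemergence directed soil spray or a postemergence spray on young plants. Injury was judged visually at day 10 relative to untreated controls.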

[2] = system: blackgrass (Alopecurus myosuroides); assay: as above; conditions: 10 days
Outline: as §1

corn (Zea mays) [3] = assay: as above; conditions: 10 days
Outline: as §1

[4] = system: green foxtail (Setaria viridis); assay: as above; conditions: 10 days
Outline: as §1

kochia (Bassia scoparia) [5] = assay: as above; conditions: 10 days
Outline: as §1

[6] = system: oat, wild (wild oat, Avena fatua); assay: as above; conditions: 10 days
Outline: as §1

[7] = system: palmer (palmer amaranth, palmer pigweed, Amaranthus palmeri); assay: as above; conditions: 62 g ai/ha, 10 days, 0 = no effect, 100 = complete control
Outline: as §1

[8] = system: ragweed (common ragweed, Ambrosia artemisiifolia); assay: as above; conditions: 10 days
Outline: as §1

[9] = system: ryegrass, Italian (italian ryegrass, Lolium multiflorum); assay: as above; conditions: 10 days
Outline: as §1

soybean (Glycine max) [10] = assay: as above; conditions: 10 days
Outline: as §1

[11] = system: wheat (Triticum aestivum); assay: as above; conditions: 10 days
Outline: as §1

[12] = system: barnyardgrass (Echinochloa crus-galli); assay: Test A postemergence application, visual injury rating 0-100
Outline: as §1

[13] = system: blackgrass (Alopecurus myosuroides); assay: as above
Outline: as §1

corn (Zea mays) [14] = assay: as above
Outline: as §1

[15] = system: galium (catchweed bedstraw, Galium aparine); assay: as above
Outline: as §1

[16] = system: green foxtail (Setaria viridis); assay: as above
Outline: as §1

[17] = system: horseweed (Erigeron canadensis); assay: as above
Outline: as §1

kochia (Bassia scoparia) [18] = assay: as above
Outline: as §1

[19] = system: oat, wild (wild oat, Avena fatua); assay: as above
Outline: as §1

[20] = system: palmer (palmer amaranth, palmer pigweed, Amaranthus palmeri); assay: as above
Outline: as §1

[21] = system: ragweed (common ragweed, Ambrosia artemisiifolia); assay: as above
Outline: as §1

[22] = system: ryegrass, Italian (italian ryegrass, Lolium multiflorum); assay: as above
Outline: as §1

soybean (Glycine max) [23] = assay: as above
Outline: as §1

[24] = system: wheat (Triticum aestivum); assay: as above
Outline: as §1

[25] = system: barnyardgrass (Echinochloa crusgalli); assay: Test B flooded paddy test, visual plant response rating 0-100; conditions: 250 g ai/ha, Flood, applied to paddy water, evaluated after 13 days
Outline: (§2)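 Treatment occurs at the 2-leaf stage by adding compound to floodwater standing 3 cm above the soil, a level kept for the whole test. Plants stay in the greenhouse 13 days before visual comparison with controls.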

[26] = system: ducksalad (Heteranthera limosa); assay: as above; conditions: 250 g ai/ha, Flood, applied to paddy water, evaluated after 13 days
Outline: as §2

rice (Oryza sativa) = assay: as above; conditions: 250 g ai/ha, Flood, applied to paddy water, evaluated after 13 days
Outline: as §2

[27] = system: sedge, umbrella (small-flower umbrella sedge, Cyperus difformis); assay: as above; conditions: 250 g ai/ha, Flood, applied to paddy water, evaluated after 13 days
Outline: as §2

[28] = 62 g ai/ha, 0 = no effect, 100 = complete control
[29] = 62 g ai/ha, postemergence, 10 days, 0 = no effect, 100 = complete control
[30] = Postemergence, 16 g ai/ha, greenhouse 10 days, 0 no effect, 100 complete control

COC(=O)C1=CCC(NC(=O)C2(C)CN(c3cc(F)cc(Cl)c3)C(=O)O2)C1 (stereo not drawn) [Compound 140]
Barnyardgrass plant response rating ([1]; 16 g ai/ha, 0 to 100 scale): 50 | Barnyardgrass plant response rating (0-100) [1, 28]: 100 | Blackgrass plant response rating ([2]; 16 g ai/ha, 0 to 100 scale): 0 | Blackgrass plant response rating (0-100) [2, 28]: 50 | Corn plant response rating (corn (Zea mays) [3]; 16 g ai/ha, 0 to 100 scale): 10 | Corn plant response rating (0-100) (corn (Zea mays) [3]; [28]): 60 | Foxtail, Green plant response rating ([4]; 16 g ai/ha, 0 to 100 scale): 80 | Foxtail, Green plant response rating (0-100) [4, 28]: 90 | Kochia plant response rating (kochia (Bassia scoparia) [5]; 16 g ai/ha, 0 to 100 scale): 50 | Kochia plant response rating (0-100) (kochia (Bassia scoparia) [5]; [28]): 100 | Oat, Wild plant response rating ([6]; 16 g ai/ha, 0 to 100 scale): 20 | Oat, Wild plant response rating (0-100) [6, 28]: 20 | Pigweed, Palmer plant response rating (0-100) [7]: 90 | Ragweed plant response rating ([8]; 16 g ai/ha, 0 to 100 scale): 0 | Ragweed plant response rating (0-100) [8, 28]: 0 | Ryegrass, Italian plant response rating ([9]; 16 g ai/ha, 0 to 100 scale): 50 | Ryegrass, Italian plant response rating (0-100) [9, 28]: 90 | Soybean plant response rating (soybean (Glycine max) [10]; 16 g ai/ha, 0 to 100 scale): 0 | Soybean plant response rating (0-100) (soybean (Glycine max) [10]; [28]): 80 | Wheat plant response rating ([11]; 16 g ai/ha, 0 to 100 scale): 40 | Wheat plant response rating (0-100) [11, 28]: 80 | Barnyardgrass plant response rating (0-100) [12, 29]: 100 | Barnyardgrass plant response rating (0 to 100 scale) [12, 30]: 100 | Blackgrass plant response rating (0-100) [13, 29]: 100 | Blackgrass plant response rating (0 to 100 scale) [13, 30]: 90 | Corn plant response rating (0-100) (corn (Zea mays) [14]; [29]): 100 | Corn plant response rating (0 to 100 scale) (corn (Zea mays) [14]; [30]): 100 | Galium plant response rating (0-100) [15, 29]: 90 | Galium plant response rating (0 to 100 scale) [15, 30]: 70 | Foxtail, Green plant response rating (0-100) [16, 29]: 90 | Foxtail, Green plant response rating (0 to 100 scale) [16, 30]: 90 | Horseweed plant response rating (0-100) [17, 29]: 90 | Horseweed plant response rating (0 to 100 scale) [17, 30]: 80 | Kochia plant response rating (0-100) (kochia (Bassia scoparia) [18]; [29]): 90 | Kochia plant response rating (0 to 100 scale) (kochia (Bassia scoparia) [18]; [30]): 90 | Oat, Wild plant response rating (0-100) [19, 29]: 90 | Oat, Wild plant response rating (0 to 100 scale) [19, 30]: 60 | Pigweed, Palmer plant response rating (0-100) [20, 29]: 80 | Pigweed, Palmer plant response rating (0 to 100 scale) [20, 30]: 60 | Ragweed plant response rating (0-100) [21, 29]: 70 | Ragweed plant response rating (0 to 100 scale) [21, 30]: 50 | Ryegrass, Italian plant response rating (0-100) [22, 29]: 80 | Ryegrass, Italian plant response rating (0 to 100 scale) [22, 30]: 60 | Soybean plant response rating (0-100) (soybean (Glycine max) [23]; [29]): 70 | Soybean plant response rating (0 to 100 scale) (soybean (Glycine max) [23]; [30]): 70 | Wheat plant response rating (0-100) [24, 29]: 90 | Wheat plant response rating (0 to 100 scale) [24, 30]: 80 | Plant response rating, Barnyardgrass (0 to 100 scale, 0 is no effect and 100 is complete control) [25]: 85 | Plant response rating, Ducksalad (0 to 100 scale, 0 is no effect and 100 is complete control) [26]: 65 | Plant response rating, Rice (0 to 100 scale, 0 is no effect and 100 is complete control) (rice (Oryza sativa)): 65 | Plant response rating, Sedge, Umbrella (0 to 100 scale, 0 is no effect and 100 is complete control) [27]: 100
